Assay results: patent US9156830B2, “Heterocyclic compounds” (SHIONOGI & CO., LTD., priority 2011, dated 2015)

How the values were obtained:
[1] = Measurement of Body Temperature Increase; format: in vivo; settings: Crl/SD rats, oral, 1 mg/mL in 0.5% methylcellulose at 10 mL/kg; rectal temperature 0.5, 1 and 2 hrs after administration; difference from vehicle group average
Protocol: Selection of rats (Crl/SD rats, 7 weeks, male) for this study is based on rectal body temperature measured during the morning of the day of dosing. In addition, animals selected for this study are acclimated to both the rectal measurement procedure and to being handled and dosed to minimize spontaneous, stress-induced, increases in body temperature. The study is conducted in the animal care laboratories where the room temperature and humidity are kept. The rats are free to move and food and water during the study. Each rat is numbered with color line on the tail, housed in each cage and permittted the normal range of movement. Immediately before each body temperature is measured, they transferred to a single cage at each measurement. To reduce stress which affected the body temperature, the rats are covered with towels at the measurement. The thermistor probe is then carefully inserted into the rectum of each rat and left in place until the value on the digital display had stabilized.
On the day before dosing, rectal body temperatures are measured at 9:00, 10:00, 11:00, 12:30, 13:30, 14:30 and 15:30 to familiarize the animals with the measurement procedure prior to administration of the test or control treatments. The rats are also dosed by oral gavage without vehicle at 12:30 to acclimate and familiarized the animals with the handling and dosing procedure.
On the day of dosing, only rats whose rectal body temperatures are within the range of 37.0° C. to 37.7° C. are selected for this study. Rectal body temperatures are measured at 9:00, 10:00 and 11:00. Rats whose rectal body temperatures are over 37.9° C. at 10:00, and are outside the range of 37.0° C. to 37.7° C. at 11:00 are excluded from the study. The selected rats are divided to several groups based on their rectal body temperatures at 11:00. Rectal body temperatures of the selected rats are measured again at 12:30, and any rats whose rectal body temperature is 38.0° C. or greater are excluded from the study.
Following the group assignment, test compounds or vehicle is administrated to the rats. Each test compound is dissolved in 0.5% methylcellulose and the final concentration of the compound is adjusted to 1 mg/mL. Test compound is orally administrated in a volume 10 mL/kg once. 10 mL/kg of vehicle (0.5% methylcellulose) is administered to the vehicle group. The rectal body temperatures are measured 0.5, 1 and 2 hrs after the administration. The study is conducted in the animal care laboratories where the room temperature and humidity are kept.
Body temperature increase (ΔTb) is calculated from the difference from an average of the vehicle group at each time point. The body temperature increases (ΔTb) of Compounds I-20, I-25, I-26, I-28, I-29, I-33, I-34, I-36, I-37, I-63 and I-64 were less than 0.3° C.

Human TRPV1 [2] = biological target: T1, Human TRPV1 (Homo sapiens (Human), UniProt Q8NER1); test: Capsaicin-Based Assay (Protocol 2), TRPV1/CHO cells; format: cell-based; settings: capsaicin 100 nM final, Fluo-4, read-out: TRPV1 IC50 Potency Capsaicin-Based Assay IC50
Protocol: The TRPV1/CHO cell line was generated as described below. […] Subsequently, the cells were loaded by incubation in 0.1 mL of wash buffer containing Fluo-4 at 3 μM final concentration. After 1 hour, the cells were washed twice with 0.2 mL wash buffer and resuspended in 0.1 mL wash buffer. The plates were then transferred to a Fluorescence Imaging Plate Reader (Molecular Devices). Fluorescence intensity was monitored for 15 seconds to establish a baseline. […] The final concentration of the compound was adjusted to range from 100 μM to 1.5625 μM. […] Data were collected over the entire time course and analyzed using Excel and the curve-fitting formula GraphPad Prism.

Human TRPV1 [3] = biological target: T1, Human TRPV1; test: pH-Based Assay (Protocol 2), Ca2+ response in TRPV1/CHO cells; format: cell-based; settings: pH 5.0-5.1 (H2SO4)
Protocol: The TRPV1/CHO cell line was generated as described below. The following assay was conducted to determine the concentration of sulfuric acid that would give rise to a pH that induces a […] response optimal to test compounds for their effect on TRPV1. […] For one half of a 96-well plate one agonist solution was used, for the other half the other agonist solution. The agonist solutions were obtained by diluting sulfuric acid (H2SO4, 1 M) with measuring buffer. The concentrations for the two agonist solutions were determined as described above in Section 2 of Protocol 2. The sulfuric acid concentrations between the two agonist solutions differed by 0.5 mM. […] The thereby-obtained solutions were further diluted in measuring buffer (1:100) as 10× stock serial dilutions with a DMSO concentration of 1%. 10 μL of a 10× stock was added into each well at step 3.3.(4) of Protocol 2. Thus, the final concentrations of antagonists ranged from 1000-0.977 nM containing 0.1% DMSO (FIG. 3B). […] (3) The cells were washed twice with 150 μL of measuring buffer (mentioned in 2.2.(3) of Protocol 2, no probenecid). The wells were subsequently refilled with 70 μL of measuring buffer. (4) Either 10 μL of measuring buffer or 10 μL of 10× stock serial dilution of test compound (described in 3.2. above) were applied to each well. Usually, only one test compound was tested per 96-well plate. The number of replicates per 96-well plate for a particular antagonist at a particular concentration was 7×2 since two different sulfuric acid concentrations were used per 96-well plate (N=7×2)(FIG. 3). Step (5) was the same as 2.2.(4) above. (6) Fura-2 fluorescent intensity was monitored as described in 2.2.(5) above. […] Steps (7) and (8) were as described in 2.2.(6) and 2.2.(7) above, respectively. […] FIG. 3) were measured one by one using a portable pH meter.

T1 sequence (Q8NER1 whole entry): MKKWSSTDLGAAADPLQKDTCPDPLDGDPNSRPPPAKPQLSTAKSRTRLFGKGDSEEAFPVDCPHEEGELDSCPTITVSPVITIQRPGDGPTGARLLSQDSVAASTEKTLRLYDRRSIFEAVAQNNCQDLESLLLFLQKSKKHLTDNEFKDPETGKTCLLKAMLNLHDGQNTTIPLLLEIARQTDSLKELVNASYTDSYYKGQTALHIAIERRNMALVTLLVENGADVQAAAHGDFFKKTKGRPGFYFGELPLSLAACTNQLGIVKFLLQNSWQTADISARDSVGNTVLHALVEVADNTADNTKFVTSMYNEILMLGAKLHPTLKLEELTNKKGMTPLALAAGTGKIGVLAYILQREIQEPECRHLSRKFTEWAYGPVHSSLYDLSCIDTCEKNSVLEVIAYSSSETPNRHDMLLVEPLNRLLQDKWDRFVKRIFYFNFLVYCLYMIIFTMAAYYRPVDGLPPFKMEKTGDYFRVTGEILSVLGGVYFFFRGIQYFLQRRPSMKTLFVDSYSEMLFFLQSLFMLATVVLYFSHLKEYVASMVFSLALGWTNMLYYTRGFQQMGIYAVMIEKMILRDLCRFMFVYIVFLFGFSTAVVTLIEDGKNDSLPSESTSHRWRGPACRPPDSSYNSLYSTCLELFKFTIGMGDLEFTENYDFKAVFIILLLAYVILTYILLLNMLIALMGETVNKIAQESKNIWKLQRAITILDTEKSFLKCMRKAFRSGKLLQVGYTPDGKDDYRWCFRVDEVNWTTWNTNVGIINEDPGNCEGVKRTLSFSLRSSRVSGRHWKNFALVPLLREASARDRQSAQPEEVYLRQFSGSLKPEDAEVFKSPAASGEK

Body temperature increase (ΔTb) [1] | SMILES | further results
less than 0.3 °C | O=C(Nc1ccc(C(F)(F)F)c(Cl)c1)N1CC=C(c2ncc(-c3nnc([C@H](O)CO)o3)cc2Cl)CC1 [Compound I-20, (R) —N-(3-chloro-4-(trifluoromethyl)phenyl)-4-(3-chloro-5-(5-(1,2-dihydroxyethyl)-1,3,4-oxadiazol-2-yl)pyridin-2-yl)-5,6-dihydropyridine-1(2H)-carboxamide] | IC50 (Human TRPV1 [2]): 147 nM
less than 0.3 °C | O=C(Nc1ccc(C(F)(F)F)cn1)N1CC=C(c2ncc(-c3noc(CO)n3)cc2Cl)CC1 [Compound I-26, 4-(3-chloro-5-(5-(hydroxymethyl)-1,2,4-oxadiazol-3-yl)pyridin-2-yl)-N-(5-(trifluoromethyl)pyridin-2-yl)-5,6-dihydropyridine-1(2H)-carboxamide] | 
less than 0.3 °C | O=C(Nc1ccc(C(F)(F)F)c(Cl)c1)N1CC=C(c2ncc(-c3ocnc3CO)cc2Cl)CC1 [Compound I-28, N-(3-chloro-4-(trifluoromethyl)phenyl)-4-(3-chloro-5-(4-(hydroxymethyl)oxazol-5-yl)pyridin-2-yl)-5,6-dihydropyridine-1(2H)-carboxamide] | 
less than 0.3 °C | O=C(Nc1ccc(C(F)(F)F)c(Cl)c1)N1CC=C(c2ncc(-c3cc(CO)on3)cc2Cl)CC1 [Compound I-29, N-(3-chloro-4-(trifluoromethyl)phenyl)-4-(3-chloro-5-(5-(hydroxymethyl)isoxazol-3-yl)pyridin-2-yl)-5,6-dihydropyridine-1(2H)-carboxamide] | 
less than 0.3 °C | O=C(Nc1ccc(C(F)(F)F)cn1)N1CC=C(c2ncc(-c3cc(CO)on3)cc2Cl)CC1 [Compound I-33, 4-(3-chloro-5-(5-(hydroxymethyl)isoxazol-3-yl)pyridin-2-yl)-N-(5-(trifluoromethyl)pyridin-2-yl)-5,6-dihydropyridine-1(2H)-carboxamide] | 
less than 0.3 °C | O=C(Nc1nc2ccc(F)cc2s1)N1CC=C(c2ncc(-c3cc(CO)on3)cc2Cl)CC1 [Compound I-34, 4-(3-chloro-5-(5-(hydroxymethyl)isoxazol-3-yl)pyridin-2-yl)-N-(6-fluorobenzo[d]thiazol-2-yl)-5,6-dihydropyridine-1(2H)-carboxamide] | IC50 (Human TRPV1 [3]; Fura-2, read-out: TRPV1 IC50 Potency pH-Based Assay IC50): 33.6 nM
less than 0.3 °C | O=C(Nc1ccc(C(F)(F)F)c(Cl)c1)N1CC=C(c2ncc(-c3nc(CO)no3)cc2Cl)CC1 [Compound I-36, N-(3-chloro-4-(trifluoromethyl)phenyl)-4-(3-chloro-5-(3-(hydroxymethyl)-1,2,4-oxadiazol-5-yl)pyridin-2-yl)-5,6-dihydropyridine-1(2H)-carboxamide] | IC50 (Human TRPV1 [3]; Fura-2, read-out: IC50 value by the pH-Based Assay): ≤ 100 nM
less than 0.3 °C | O=C(Nc1ccc(C(F)(F)F)cn1)N1CC=C(c2ncc(-c3nc(CO)no3)cc2Cl)CC1 [Compound I-37, 4-(3-chloro-5-(3-(hydroxymethyl)-1,2,4-oxadiazol-5-yl)pyridin-2-yl)-N-(5-(trifluoromethyl)pyridin-2-yl)-5,6-dihydropyridine-1(2H)-carboxamide] | 
less than 0.3 °C | O=C(Nc1ccc(C(F)(F)F)cn1)N1CC=C(c2ncc(-c3nc(CO)no3)cc2F)CC1 [Compound I-63, 4-(3-fluoro-5-(3-(hydroxymethyl)-1,2,4-oxadiazol-5-yl)pyridin-2-yl)-N-(5-(trifluoromethyl)pyridin-2-yl)-5,6-dihydropyridine-1(2H)-carboxamide] | 
less than 0.3 °C | Cc1cc(NC(=O)N2CC=C(c3ncc(-c4nc(CO)no4)cc3F)CC2)ccc1C(F)(F)F [Compound I-64, 4-(3-fluoro-5-(3-(hydroxymethyl)-1,2,4-oxadiazol-5-yl)pyridin-2-yl)-N-(3-methyl-4-(trifluoromethyl)phenyl)-5,6-dihydropyridine-1(2H)-carboxamide] | 
